# Data as given in patent publication US20100111874A1, “METHOD OF CANCER DETECTION AND TREATMENT” (University of Medicine and Dentistry of New Jresey, priority 2007, published 2010).
# Key:
# [1] = target: T1, TOP1-DNA covalent complexes (Homo sapiens, UniProt P11387); assay: Band depletion assay for TOP1 cleavage complexes; assay type: cell-based; conditions: MCF7/RC vs MCF7; CPT 25 μM for 15 min
# T1 construct: endogenous in cells; host or cells: MCF7 and MCF7/RC breast cancer cells
# T1 sequence (P11387 2-765 limits assumed): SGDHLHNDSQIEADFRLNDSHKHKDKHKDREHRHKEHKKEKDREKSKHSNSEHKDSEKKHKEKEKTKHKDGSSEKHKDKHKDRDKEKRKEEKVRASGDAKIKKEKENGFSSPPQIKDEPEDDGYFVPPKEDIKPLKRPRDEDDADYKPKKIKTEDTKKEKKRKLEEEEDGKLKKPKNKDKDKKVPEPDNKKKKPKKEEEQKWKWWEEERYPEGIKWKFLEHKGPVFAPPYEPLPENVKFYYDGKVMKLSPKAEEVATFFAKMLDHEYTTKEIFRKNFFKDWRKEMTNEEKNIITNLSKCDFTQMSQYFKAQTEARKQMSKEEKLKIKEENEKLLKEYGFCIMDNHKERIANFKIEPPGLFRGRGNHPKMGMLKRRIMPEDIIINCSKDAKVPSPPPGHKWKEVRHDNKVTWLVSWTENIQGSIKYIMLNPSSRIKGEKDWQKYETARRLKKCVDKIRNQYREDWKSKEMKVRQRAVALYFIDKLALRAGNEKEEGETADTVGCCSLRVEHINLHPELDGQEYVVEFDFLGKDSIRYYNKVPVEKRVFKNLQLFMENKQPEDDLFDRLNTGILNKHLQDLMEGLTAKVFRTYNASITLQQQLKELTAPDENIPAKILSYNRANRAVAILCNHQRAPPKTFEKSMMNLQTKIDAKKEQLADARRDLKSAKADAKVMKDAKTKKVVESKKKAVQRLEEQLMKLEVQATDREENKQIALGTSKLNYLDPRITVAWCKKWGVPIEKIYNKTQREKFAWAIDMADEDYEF
# Description: Band depletion assay for TOP1 cleavage complexes. Cells (106/sample) are treated with CPT (25 μM in 1% DMSO) for various times at 37° C. Cells are then lysed with 0.2 N NaOH containing 2 mM EDTA as described previously (14). Cell lysates are then neutralized with 1/10 volume of a solution containing 10% NP-40, 1 M Tris (pH 7.4), 0.1 M MgCl2, 0.1 M CaCl2, 10 mM dithiothreitol, 1 mM EGTA, and a mixture of peptide protease inhibitors (100 μg/ml each of leupeptin, pepstatin, and aprotinin), followed by the addition of another 1/10 volume of 2 N HCl. Reactions are terminated by the addition of SDS-PAGE sample buffer. Immunoblotting analysis of cell lysates is carried out using anti-Scl-70 antibody from scleroderma patients as described above.
# [2] = system: ZR-75-1 cells stably expressing ISG15 or UbcH8 shRNA; assay: Clonogenic survival assay; assay type: cell-based
# Description: Cell survival assays. MTT assay: Cells (3000 cells/well) are plated in 96-well microtiter plates and incubated at 37° C. in a CO2 incubator. For determination of IC50, cells are treated with varying concentrations of CPT for four days. Cells are then incubated with MTT (3-(4,5-dimethylthiazol-2-yl)-2,5-diphenyltetrazolium bromide) for 4 hrs at 37° C. The dye produced by viable cells is dissolved in DMSO and the optical density measured at 570 nm. All assays are performed at least twice in six replicate wells. Clonogenic assay: Cells (100-500 cells/plate) are plated in 6-well tissue culture plates and incubated at 37° C. in a CO2 incubator. Cells are then treated with various concentrations of CPT for 1 hr. Following CPT treatment, cells are washed free of CPT and placed in fresh medium. After 10 days, survived colonies are stained with Methylene blue and counted using the Minicount machine. Cell counting assay: Logarithmically growing cells are treated with various concentrations of CPT for 1 hr. CPT is then removed by washing the plates with CPT-free medium four times. […] Cell survival is determined by counting cells using the Coulter counter after trypsinization.
# Example No. 3. […] Cell lysates of ZR-75-1 clones expressing either control shRNA (lane #1) or ISG15 shRNA (lanes #2) are analyzed by 15% SDS-PAGE. […] Equal protein loading is assessed by re-probing the same membrane with anti-tubulin antibody (lower panel). […] Equal protein loading is assessed by re-probing the same membrane blot with anti-tubulin antibody (lower panels).
# Example No. 4. […] Cell lysates prepared from ZR-75-1 clones expressing either control shRNA (lane #1) or UbcH8 shRNA (lanes #2 and 3, from two independent clones), and the purified UbcH8 protein (lane #4) are analyzed by 15% SDS-PAGE. […] Equal protein loading is assessed by re-probing the same membrane with anti-tubulin antibody (lower panels). […] Cell lysates prepared from ZR-75-1 clones expressing either control shRNA (lane #1) or UbcH8 shRNA (lanes #2 and 3, two independent clones), and the purified UbcH8 protein (lane #4) are analyzed by 15% SDS-PAGE. […]
compound,measurement,setting,value
"CC[C@@]1(O)C(=O)OCc2c1cc1n(c2=O)Cc2cc3ccccc3nc2-1 [CPT, camptothecin]",amount of TOP1-DNA covalent complexes,[1],No change
same,"resistance to CPT, clonogenic survival","[2]; ZR/ISG15-shRNA1 vs control-shRNA cells, one hr acute exposure",much more resistant
same,"resistance to CPT, clonogenic survival","[2]; ZR/UbcH8-shRNA1 vs ZR/control-shRNA2, one-hr acute CPT exposure",much more resistant
same,"resistance to CPT, clonogenic survival","[2]; ZR/UbcH8-shRNA2 vs ZR/control-shRNA2, one-hr acute CPT exposure",much more resistant
